Key:
cancer cells = experiment: Cell line profiling with a ferroptosis-inducing agent with and without a rescue agent (CellTiter-Glo); type: cell-based, human
Protocol: Cell viability assays are performed by seeding 1,000 cells per well (30 μl volume) in opaque white 384-well plates (Corning). Cells are allowed to adhere for 24 h, after which they are exposed to compounds for 72 hours. DMSO stock solutions of compounds are added to cells using a CyBio Well Vario liquid dispenser (Analytik Jena AG). Cellular ATP levels are measured using CellTiter-Glo (Promega) as a surrogate for viability. Rescue assays are performed using rescue agents-ferrostatin-1 (fer-1, 1.5 μM), liproxstatin-1 (lip-1, 1 μM), deferoxamine (DFO, 50 μM), and other ferroptosis inhibitors added to cells at the time of addition to assay plates. Dose-response curves for BSO and RSL3 are shown in FIG. 4 with and without anti-ferroptosis rescue agent treatment (indicated as no treatment or +1.5 μM fer-1).

solid tumor animal model = experiment: Microdosing tumors with ferroptosis-inducing agents (implantable drug delivery system, cleaved caspase-3 / H&E staining); type: in vivo, C57BL6/J mice; details: for tumor response (cleaved caspase-3 staining: cell death, white blood cell recruitment): local sustained administration, 1-10 μM at the tumor site, 24 hours
Protocol: For the allograft study, cancer cell line-derived tumor cells were injected into the flanks of male C57BL6/J mice. Assays were initiated when the tumor diameter was approximately 6-7 mm.
Microdose drug delivery was performed for the assay described herein. The compounds in Table 22 were packed into device reservoirs using a tapered metal needle. Reservoirs were loaded for initial release of liproxstatin-1 (where included) followed by a 4-6 h delayed release of ferroptosis inducers. Devices were prepared for dose administration into mouse tumors. Devices delivered the ferroptosis inducing agent for 24-72 hours in the tissue. The tumor was then excised, and the tissue was snap frozen with liquid nitrogen. Tissue was sectioned using a standard cryotome, and tissue slices of 20 μm in thickness were collected from each reservoir for analysis by immunoassays, transcriptomics, and metabolomic assays.
A drug delivery system was applied to a: solid tumor animal model. Animals were administered (1) L-BSO or (2) L-BSO+liproxstatin-1 (lip-1) as a ferroptosis-rescue agent. Drugs were loaded into an implantable drug delivery system to achieve concentrations of 1-10 μM for both BSO+lip-1 at the tumor site. After 24 hours, tumors were removed and stained for cleaved caspase-3 to indicate cell death in the tumor (FIG. 2A). […] Therefore, ferroptosis can be induced by both local and systemic administration of BSO.
A drug delivery system was applied to a: solid tumor animal model. Animals were administered (1) ML-210 or (2) ML-210+liproxstatin-1 (lip-1), as a ferroptosis rescue agent. Drugs were loaded into an implantable drug delivery system to achieve concentrations of 1-10 μM for both ML-210 and ML-210+liproxstatin-1 (lip-1) at the tumor site. After 24 hours, tumors were removed and stained for cleaved caspase-3.
To achieve therapeutic doses of RSL3 in vivo, a drug delivery system was applied to a: solid tumor animal model. Animals were administered (1) RSL3 or (2) RSL3+liproxstatin (lip-1) as a ferroptosis rescue agent. Drugs were loaded into an implantable drug delivery system to achieve concentrations of 1-10 μM for both RSL-3 and RSL3 and lip-1 co-administration at the tumor site. After 24 hours of sustained administration, tumors were removed and stained for cleaved caspase-3 (FIG. 5A). Dashed lines indicate region of drug exposure.

RKN cells = experiment: RKN cell profiling assay (cell viability, CellTiter-Glo); type: cell-based; details: cell viability, read-out: Cell Killing EC50
Procedure, shortened: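 Viability read by CellTiter-Glo luminescence after 96 h compound exposure (0.5% DMSO final) of cells plated at 1,000/well in 10% FBS F-12 and allowed 24 h attachment. Four-parameter fits gave EC50; rescue arms used ferrostatin-1, 1.5 μM, present from seeding.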

human recombinant GCL = human recombinant GCL (Homo sapiens (Human), UniProt P48506); experiment: GCL enzyme profiling assay (ADP-Glo luminescence); type: biochemical; details: human recombinant GCL, ADP-Glo; read-out: GCL IC50
Procedure, shortened: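 IC50 fitted by four-parameter logistic to luminescent ADP formation (ADP-Glo). Reaction at room temperature in HEPES pH 7.5 with 30 mM MgCl2, 0.2% F-127, 1% DMSO; 5 nM GCL and 0.6 mM ATP preincubated 1 h before adding 1 mM glutamate plus 1.2 mM α-aminobutyrate for 2 h.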

human recombinant GCL, sequence (P48506 whole entry): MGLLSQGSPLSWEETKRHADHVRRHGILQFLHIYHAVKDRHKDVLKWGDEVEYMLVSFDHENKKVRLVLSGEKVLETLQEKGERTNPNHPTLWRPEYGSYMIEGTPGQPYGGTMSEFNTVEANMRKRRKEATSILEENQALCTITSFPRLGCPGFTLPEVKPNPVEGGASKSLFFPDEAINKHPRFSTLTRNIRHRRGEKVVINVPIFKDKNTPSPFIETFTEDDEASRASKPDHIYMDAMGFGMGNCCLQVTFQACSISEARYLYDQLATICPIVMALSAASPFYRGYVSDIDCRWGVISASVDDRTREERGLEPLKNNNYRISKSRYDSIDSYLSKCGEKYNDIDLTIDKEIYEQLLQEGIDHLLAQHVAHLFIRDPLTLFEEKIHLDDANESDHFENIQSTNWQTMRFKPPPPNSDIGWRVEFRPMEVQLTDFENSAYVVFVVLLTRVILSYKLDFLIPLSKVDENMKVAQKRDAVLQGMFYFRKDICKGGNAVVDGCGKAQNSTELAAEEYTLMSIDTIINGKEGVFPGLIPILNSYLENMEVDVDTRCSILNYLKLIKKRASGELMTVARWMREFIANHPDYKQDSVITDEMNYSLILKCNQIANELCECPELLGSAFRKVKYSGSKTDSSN

SMILES	EC50 (RKN cells)	IC50 (human recombinant GCL)	further results
CCCCS(=N)(=O)CC[C@H](N)C(=O)O (stereo partly drawn) [BSO, buthionine sulfoximine]			fractional viability of cancer cells with fer-1 co-treatment (cancer cells; +1.5 μM fer-1): not observed; fractional viability of tumor (solid tumor animal model; compared with BSO+fer-1 treated sections of the tumor): significant reductions in fractional viability; tumor response (cleaved caspase-3 staining: cell death, white blood cell recruitment) (solid tumor animal model): recruitment of white blood cells to the tumor indicating immune cell recruitment and cell death at the tumor site
CC(C)(C)OC(=O)[C@@H](N)CC[S@](=N)(=O)CC[C@H](O)C(F)(F)F [Compound 490]	≥ 1000 µM	> 2000 µM	
CC(C)(C)OC(=O)[C@@H](N)CC[S@@](=N)(=O)CC[C@@H](O)C(F)(F)F [Compound 491, tert-butyl (S)-2-amino-4-((R,3R)-4,4,4-trifluoro-3-hydroxybutylsulfonimidoyl)butanoate]	< 1000 µM	20 to 2000 µM	
CC(C)(C)OC(=O)[C@@H](N)CC[S@](=N)(=O)CC[C@@H](O)C(F)(F)F [Compound 492]	≥ 1000 µM	> 2000 µM	
N=S(=O)(CC[C@H](N)C(=O)O)CCC(O)(CC(F)(F)F)c1ccc(-c2ccc(Cl)cc2Cl)cc1 (stereo partly drawn) [Compound 494, (2S)-2-amino-4-(3-(2′, 4′-dichloro-[1, 1′-biphenyl]-4-yl)-5,5,5-trifluoro-3-hydroxypentylsulfonimidoyl) butanoic acid]	≥ 1000 µM	≤ 20 µM	
N=S(=O)(C/C=C(\CC(F)(F)F)c1ccc(-c2ccc(Cl)cc2Cl)cc1)CC[C@H](N)C(=O)O (stereo partly drawn) [Compound 495, (2S)-2-amino-4-((E)-3-(2′, 4′-dichloro-[1, 1′-biphenyl]-4-yl)-5,5,5-trifluoropent-2-en-1-ylsulfonimidoyl) butanoic acid]	≥ 1000 µM	20 to 2000 µM	
N[C@H]1CC[S@@](=O)(CC[C@H](O)C(F)(F)F)=NC1=O [Compound 496, (1R,4S)-4-amino-1-((S)-4,4,4-trifluoro-3-hydroxybutyl)-5,6-dihydro-116,2-thiazin-3 (4H)-one 1-oxide]	< 1000 µM	20 to 2000 µM	
CC(O)(CCS(=N)(=O)CC[C@H](N)C(=O)O)C1CCC1 (stereo partly drawn) [Compound 497, (2S)-2-amino-4-(3-cyclobutyl-3-hydroxybutylsulfonimidoyl)butanoic acid]	≥ 1000 µM	20 to 2000 µM	
N=S(=O)(CC[C@H](N)C(=O)O)CCC1(c2ncc(-c3ccc(Cl)cc3Cl)cn2)CCC1 (stereo partly drawn) [Compound 498, (2S)-2-amino-4-(2-(1-(5-(2,4-dichlorophenyl)pyrimidin-2-yl)cyclobutyl)ethylsulfonimidoyl) butanoic acid]	< 1000 µM	≤ 20 µM	
N[C@@H](CCS(=O)(=O)NCC(O)(c1ccc(-c2ccc(Cl)cc2Cl)cn1)C(F)(F)F)C(=O)O (stereo partly drawn) [Compound 513, (2S)-2-amino-4-(N-(2-(5-(2,4-dichlorophenyl)pyridin-2-yl)-3,3,3-trifluoro-2-hydroxypropyl)sulfamoyl)butanoic acid]	≥ 1000 µM	≤ 20 µM	
N[C@@H](CCS(=O)(=O)NCC(O)(c1ccc(-c2ccccc2)cn1)C(F)(F)F)C(=O)O (stereo partly drawn) [Compound 514, (2S)-2-amino-4-(N-(3,3,3-trifluoro-2-hydroxy-2-(5-phenylpyridin-2-yl)propyl)sulfamoyl)butanoic acid]	≥ 1000 µM	20 to 2000 µM	
CCOC(=O)c1ccc(NC2CCCCC2)c(N)c1 [Ferrostatin-1, ferrostatin-1]			rescue from cell death (cancer cells; RSL3 and BSO treated tumors in vivo, 1.5 μM fer-1): prevents cell death
Cc1onc(C(=O)N2CCN(C(c3ccc(Cl)cc3)c3ccc(Cl)cc3)CC2)c1[N+](=O)[O-] [ML-210]			tumor response (cleaved caspase-3 staining: cell death, white blood cell recruitment) (solid tumor animal model): recruitment of white blood cells to the tumor indicating immune cell recruitment and cell death at the tumor site
N=[S@@](=O)(CC[C@H](N)C(=O)O)CCC1(c2ccccn2)CCC1 [compound 388]	< 1000 µM	20 to 2000 µM	
N=[S@](=O)(CC[C@H](N)C(=O)O)CCC1(c2ccccn2)CCC1 [compound 389]	≥ 1000 µM	> 2000 µM	
N[C@@H](CCS(=O)(=O)CCC1(c2ccccn2)CCC1)C(=O)O [compound 390]	≥ 1000 µM	> 2000 µM	

SMILES	EC50 (RKN cells)	IC50 (human recombinant GCL)	further results
N=S(=O)(CCC(c1ccc(S(=O)(=O)Nc2ccccc2)cc1)C(F)(F)F)CC[C@H](N)C(=O)O (stereo partly drawn) [compound 499]	≥ 1000 µM	≤ 20 µM	
N=[S@SP2](=O)(CCC(N)C(=O)O)CCC12CC(c3ccc(C(F)(F)F)cc3)(C1)C2(F)F (stereo not drawn) [compound 500]	≥ 1000 µM	≤ 20 µM	
N=S(=O)(CC[C@H](N)C(=O)O)CCC(O)(c1ccc(Oc2ccc3ccc(=O)oc3c2)cc1)C(F)(F)F (stereo partly drawn) [compound 501]	≥ 1000 µM	≤ 20 µM	
N=S(=O)(CC[C@H](N)C(=O)O)CCC(O)(c1nc2ccccc2o1)C(F)(F)F (stereo partly drawn) [compound 502]	< 1000 µM	≤ 20 µM	
N=S(=O)(CC[C@H](N)C(=O)O)CCC(O)(C1[C@@H](c2ccccc2)[C@H]1c1ccccc1)C(F)(F)F (stereo partly drawn) [compound 503]	≥ 1000 µM	20 to 2000 µM	
CC(=O)N(c1ccc(C(O)(CC[S@SP3](=N)(=O)CCC(N)C(=O)O)C(F)(F)F)cc1)c1nccs1 (stereo not drawn) [compound 504]	≥ 1000 µM	≤ 20 µM	
N=[S@SP2](=O)(CCC(N)C(=O)O)CCC(O)(c1ccc(Nc2nccs2)cc1)C(F)(F)F (stereo not drawn) [compound 505]	≥ 1000 µM	≤ 20 µM	
CC(=O)Nc1ccc(C(O)(CCS(=N)(=O)CC[C@H](N)C(=O)O)C(F)(F)F)cc1 (stereo partly drawn) [compound 506]	< 1000 µM	20 to 2000 µM	
N=[S@SP2](=O)(CCC(N)C(=O)O)CCC(O)(c1ccc(N[S@SP3](=O)(=O)c2ccccc2)cc1)C(F)(F)F (stereo not drawn) [compound 507]	≥ 1000 µM	≤ 20 µM	
N=[S@SP2](=O)(CCC(N)C(=O)O)CCC(c1ccccc1)(C(F)(F)F)C(F)(F)F (stereo not drawn) [compound 508]	≥ 1000 µM	20 to 2000 µM	
N=[S@SP2](=O)(CCC(N)C(=O)O)CCC(c1ccc(-c2ccccc2)cc1)(C(F)(F)F)C(F)(F)F (stereo not drawn) [compound 509]	≥ 1000 µM	≤ 20 µM	
N=S(=O)(CC[C@H](N)C(=O)O)CCC(c1ccc(-c2ccc(Cl)cc2Cl)cc1)(C(F)(F)F)C(F)(F)F (stereo partly drawn) [compound 510]	≥ 1000 µM	≤ 20 µM	
N=S(=O)(CC[C@H](N)C(=O)O)CCC1(C(F)(F)F)OCc2ccccc21 (stereo partly drawn) [compound 511]	< 1000 µM	20 to 2000 µM	
N[C@@H](CCS(=O)(=O)CCC1(C(F)(F)F)OC(=O)c2ccccc21)C(=O)O (stereo partly drawn) [compound 512]	≥ 1000 µM	> 2000 µM	
N=[S@@](=O)(CC[C@H](N)C(=O)O)CCC1(CO)CCC1 [compound 515]	< 1000 µM	≤ 20 µM	
N[C@@H](CCS(=O)(=O)CCC(O)C(F)(F)F)C(=O)O (stereo partly drawn) [compound 516]	≥ 1000 µM	> 2000 µM	

Source: patent US20260034094A1, “COMPOSITIONS AND METHODS FOR INDUCING FERROPTOSIS” (Kojin Therapeutics, Inc., priority 2022, published 2026)
